According to PubChem BioAssay AID1259407 (Chemical Carcinogenesis Research Information System (CCRIS), 2018):
Calls of active or inactive are those of the source. How the calls were made is not given here.

Tested on: CCRIS mutagenicity, Ames/micronucleus/aberration tests
Test: CCRIS mutagenicity studies
[1] = Test System: AMES SALMONELLA TYPHIMURIUM, Strain/Indicator: TA98, Metabolic Activation: NONE, Method: STANDARD PLATE
[2] = Test System: AMES SALMONELLA TYPHIMURIUM, Strain/Indicator: TA100, Metabolic Activation: NONE, Method: STANDARD PLATE
[3] = Test System: AMES SALMONELLA TYPHIMURIUM, Strain/Indicator: TA98, Metabolic Activation: RAT, LIVER, S-9, AROCLOR 1254, Method: STANDARD PLATE

With `c1cc(-c2cc3ccc(C4=NCCN4)cc3[nH]2)ccc1C1=NCCN1` the mutagenic call [1] was “inactive; negative”, the mutagenic call (Test System: AMES SALMONELLA TYPHIMURIUM, Strain/Indicator: TA98, Metabolic Activation: RAT, LIVER, S-9, PHENOBARBITAL, Method: STANDARD PLATE) was “inactive; negative” and the mutagenic call [2] was “inactive; negative”. For the same compound, the mutagenic call (Test System: AMES SALMONELLA TYPHIMURIUM, Strain/Indicator: TA100, Metabolic Activation: RAT, LIVER, S-9, PHENOBARBITAL, Method: STANDARD PLATE) was “inactive; negative”.

In the case of `Nc1ccc(Cl)c(C(F)(F)F)c1`, the mutagenic call [1] is reported as “inactive; negative”, the mutagenic call [3] is reported as “inactive; negative” and the mutagenic call [2] is reported as “inactive; negative”. For the same compound, the mutagenic call (Test System: AMES SALMONELLA TYPHIMURIUM, Strain/Indicator: TA100, Metabolic Activation: RAT, LIVER, S-9, AROCLOR 1254, Method: STANDARD PLATE) was “inactive; negative”, the mutagenic call (Test System: AMES SALMONELLA TYPHIMURIUM, Strain/Indicator: TA1535, Metabolic Activation: NONE, Method: STANDARD PLATE) was “inactive; negative” and the mutagenic call (Test System: AMES SALMONELLA TYPHIMURIUM, Strain/Indicator: TA1535, Metabolic Activation: RAT, LIVER, S-9, AROCLOR 1254, Method: STANDARD PLATE) was “inactive; negative”. The mutagenic call (Test System: AMES SALMONELLA TYPHIMURIUM, Strain/Indicator: TA1537, Metabolic Activation: NONE, Method: STANDARD PLATE) was “inactive; negative”, the mutagenic call (Test System: AMES SALMONELLA TYPHIMURIUM, Strain/Indicator: TA1537, Metabolic Activation: RAT, LIVER, S-9, AROCLOR 1254, Method: STANDARD PLATE) was “inactive; negative” and the mutagenic call (Test System: AMES SALMONELLA TYPHIMURIUM, Strain/Indicator: TA1538, Metabolic Activation: NONE, Method: STANDARD PLATE) was “inactive; negative”. For the same compound, the mutagenic call (Test System: AMES SALMONELLA TYPHIMURIUM, Strain/Indicator: TA1538, Metabolic Activation: RAT, LIVER, S-9, AROCLOR 1254, Method: STANDARD PLATE) was “inactive; negative”.

In the case of `NC(=O)N(CC(=O)O)N=O`, the mutagenic call (Test System: E. COLI B, Strain/Indicator: H/R30R, Metabolic Activation: NONE) is reported as “active; positive” and the mutagenic call (Test System: E. COLI B, Strain/Indicator: HS30R, Metabolic Activation: NONE) is reported as “active; positive”.

With `Cc1ccc(OC(=O)N(C)N=O)cc1C` the mutagenic call (Test System: E. COLI WP2, Strain/Indicator: WP2, Metabolic Activation: NONE, Method: STANDARD PLATE) was “active; positive”.

In the case of `CC(C)NC(=O)/C=C/c1ccc([N+](=O)[O-])o1`, the mutagenic call (Test System: AMES SALMONELLA TYPHIMURIUM, Strain/Indicator: TA98, Metabolic Activation: NONE, Method: PREINCUBATION) is reported as “active; positive” and the mutagenic call (Test System: CHINESE HAMSTER V-79, Strain/Indicator: V-79/6-THIOGUANINE, Metabolic Activation: NONE, Method: STANDARD PLATE) is reported as “active; positive”.

With `Nc1nccc2[nH]c3ccccc3c12` the mutagenic call (Test System: AMES SALMONELLA TYPHIMURIUM, Strain/Indicator: TA1537, Metabolic Activation: NONE, Method: PREINCUBATION) was “active; positive”.

For `Nc1ccc(Sc2ccccc2)cc1`, the mutagenic call [1] was “inactive; negative” and the mutagenic call [3] was “active; positive”.

With `Nc1ccc2c3c(cccc13)C(=O)c1ccccc1-2` the mutagenic call (End Point: In vivo micronucleus, Test System: lacZ mutant frequency in liver, lung, and bone marrow cells, Species: Mouse, Strain/Sex: Big Blue (BALB/c x DBA2)/Male, Route: Oral) was “active; positive in liver and bone marrow”.

For `CC1(C)C=C(C(=O)O)C(C)(C)N1[O]`, the mutagenic call [1] was “inactive; negative”, the mutagenic call [2] was “inactive; negative” and the mutagenic call (Test System: AMES SALMONELLA TYPHIMURIUM, Strain/Indicator: TA102, Metabolic Activation: NONE, Method: STANDARD) was “inactive; negative”. The mutagenic call (Test System: AMES SALMONELLA TYPHIMURIUM, Strain/Indicator: TA102, Metabolic Activation: NONE, Method: STANDARD PLATE) was “inactive; negative”, the mutagenic call (Test System: AMES SALMONELLA TYPHIMURIUM, Strain/Indicator: TA102, Metabolic Activation: XANTHINE OXIDASE, Method: STANDARD PLATE) was “inactive; negative” and the mutagenic call (Test System: AMES SALMONELLA TYPHIMURIUM, Strain/Indicator: TA104, Metabolic Activation: NONE, Method: STANDARD PLATE) was “inactive; negative”. The mutagenic call (Test System: AMES SALMONELLA TYPHIMURIUM, Strain/Indicator: TA104, Metabolic Activation: XANTHINE OXIDASE, Method: STANDARD PLATE) was “inactive; negative”.
